Values joined by “and” are separate entries in the source; they are usually repeats but may differ in a detail not shown here. Identical values can stand only once. Like-named read-outs stand apart in the source and are kept apart here. Each block holds one compound with its values, some of them ahead of it.
Target: T1, GPR139 (Homo sapiens, UniProt Q6DWJ6)
T1 sequence (Q6DWJ6 1-353): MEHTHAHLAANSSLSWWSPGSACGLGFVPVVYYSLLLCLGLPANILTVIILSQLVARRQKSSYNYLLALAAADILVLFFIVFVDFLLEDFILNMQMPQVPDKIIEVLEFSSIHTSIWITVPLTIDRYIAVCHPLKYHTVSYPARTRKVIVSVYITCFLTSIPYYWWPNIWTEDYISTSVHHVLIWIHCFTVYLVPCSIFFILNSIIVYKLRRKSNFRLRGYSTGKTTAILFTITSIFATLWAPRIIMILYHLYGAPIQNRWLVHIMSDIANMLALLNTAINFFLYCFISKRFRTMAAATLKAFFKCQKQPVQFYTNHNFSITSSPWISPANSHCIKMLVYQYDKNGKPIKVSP
Assay: Ca2+ mobilization assay, agonist mode, stable GPR139-CHOk1 cell line
Format: cell-based
Conditions: for Emax: normalized to Lundbeck Cmp 1a, read-out: Emax (%), Ca2+ mobilization
In short: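 Agonist activity of compounds is assessed in stably transfected CHO-K1 cells using the calcium dye Fluo-4 at 37 °C in HEPES-buffered HBSS (pH 7.4). Efficacy is expressed relative to the reference agonist Lundbeck Cmp 1a, set as 100%.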

[1] = Supplementary Table 7, enantiopure compounds, read-out: pEC50, Ca2+ mobilization (converted)
[2] = log [Compound] M -8.5, individual replicates
[3] = log [Compound] M -9.0, individual replicates
[4] = log [Compound] M -12.0, individual replicates
[5] = log [compound] M -4.5, individual replicates
[6] = log [compound] M -5.0, individual replicates
[7] = log [compound] M -5.5, individual replicates
[8] = log [compound] M -6.0, individual replicates
[9] = log [compound] M -6.5, individual replicates
[10] = log [compound] M -7.0, individual replicates
[11] = log [compound] M -7.5, individual replicates
[12] = log [compound] M -8.0, individual replicates

EC50 [1]: 316 nM
Emax (Supplementary Table 7): 112 ± 1%
Ca2+ signal (% of Cmp 1a) [4]: 0 % of Cmp 1a
Compound: Cc1cscc1-c1nc(CC(=O)N[C@H](C)c2ccccc2)no1 [1.1(R)]
Ca2+ signal (% of Cmp 1a) [2]: 12 % of Cmp 1a and 7 % of Cmp 1a and 3.33 % of Cmp 1a
Ca2+ signal (% of Cmp 1a) [3]: 9 % of Cmp 1a and 0.333 % of Cmp 1a and -1.33 % of Cmp 1a
Ca2+ signal (% of Cmp 1a) [5]: 101 % of Cmp 1a and 112 % of Cmp 1a and 116 % of Cmp 1a
Ca2+ signal (% of Cmp 1a) [6]: 100 % of Cmp 1a and 104 % of Cmp 1a and 97 % of Cmp 1a
Ca2+ signal (% of Cmp 1a) [7]: 97 % of Cmp 1a and 88 % of Cmp 1a and 90 % of Cmp 1a
Ca2+ signal (% of Cmp 1a) [8]: 74 % of Cmp 1a and 79 % of Cmp 1a and 77 % of Cmp 1a
Ca2+ signal (% of Cmp 1a) [9]: 50 % of Cmp 1a and 51 % of Cmp 1a and 65 % of Cmp 1a
Ca2+ signal (% of Cmp 1a) [10]: 32 % of Cmp 1a and 25 % of Cmp 1a and 37 % of Cmp 1a
Ca2+ signal (% of Cmp 1a) [11]: 15 % of Cmp 1a and 13 % of Cmp 1a and 16 % of Cmp 1a
Ca2+ signal (% of Cmp 1a) [12]: 9 % of Cmp 1a and 4.67 % of Cmp 1a and 8 % of Cmp 1a

EC50 (GPR139-CHOk1, read-out: EC50, Ca2+ mobilization): 8 nM
Emax (Supplementary Table 7): 121 ± 11%
Ca2+ signal (% of Cmp 1a) [4]: 0 % of Cmp 1a
Compound: Cc1cscc1-c1nc(CC(=O)N[C@@H](C)c2ccccc2)no1 [1.1(S)]
Ca2+ signal (% of Cmp 1a) [2]: 28 % of Cmp 1a and 50 % of Cmp 1a and 51 % of Cmp 1a
Ca2+ signal (% of Cmp 1a) [3]: 24 % of Cmp 1a and 31 % of Cmp 1a and 22 % of Cmp 1a
Ca2+ signal (% of Cmp 1a) [5]: 102 % of Cmp 1a and 114 % of Cmp 1a and 136 % of Cmp 1a
Ca2+ signal (% of Cmp 1a) [6]: 108 % of Cmp 1a and 117 % of Cmp 1a and 136 % of Cmp 1a
Ca2+ signal (% of Cmp 1a) [7]: 90 % of Cmp 1a and 125 % of Cmp 1a and 141 % of Cmp 1a
Ca2+ signal (% of Cmp 1a) [8]: 102 % of Cmp 1a and 120 % of Cmp 1a and 136 % of Cmp 1a
Ca2+ signal (% of Cmp 1a) [9]: 96 % of Cmp 1a and 104 % of Cmp 1a and 131 % of Cmp 1a
Ca2+ signal (% of Cmp 1a) [10]: 104 % of Cmp 1a and 95 % of Cmp 1a and 127 % of Cmp 1a
Ca2+ signal (% of Cmp 1a) [11]: 92 % of Cmp 1a and 77 % of Cmp 1a and 113 % of Cmp 1a
Ca2+ signal (% of Cmp 1a) [12]: 61 % of Cmp 1a and 62 % of Cmp 1a and 73 % of Cmp 1a

EC50 [1]: 3160 nM
Emax (Supplementary Table 7): 99 ± 5%
Ca2+ signal (% of Cmp 1a) [4]: 0 % of Cmp 1a
Compound: C[C@@H](NC(=O)CNC(=O)c1cccc(Cl)c1)c1ccccc1 [JNJ(R), reference compound]
Ca2+ signal (% of Cmp 1a) [2]: -4.33 % of Cmp 1a and 7 % of Cmp 1a and -3.33 % of Cmp 1a
Ca2+ signal (% of Cmp 1a) [3]: -1.33 % of Cmp 1a and 6 % of Cmp 1a and -7 % of Cmp 1a
Ca2+ signal (% of Cmp 1a) [5]: 84 % of Cmp 1a and 100 % of Cmp 1a and 82 % of Cmp 1a
Ca2+ signal (% of Cmp 1a) [6]: 66 % of Cmp 1a and 88 % of Cmp 1a and 60 % of Cmp 1a
Ca2+ signal (% of Cmp 1a) [7]: 49 % of Cmp 1a and 72 % of Cmp 1a and 33 % of Cmp 1a
Ca2+ signal (% of Cmp 1a) [8]: 28 % of Cmp 1a and 43 % of Cmp 1a and 16 % of Cmp 1a
Ca2+ signal (% of Cmp 1a) [9]: 13 % of Cmp 1a and 14 % of Cmp 1a and -2 % of Cmp 1a
Ca2+ signal (% of Cmp 1a) [10]: 4.33 % of Cmp 1a and 9 % of Cmp 1a and -10 % of Cmp 1a
Ca2+ signal (% of Cmp 1a) [11]: 11 % of Cmp 1a and 3.67 % of Cmp 1a and -10 % of Cmp 1a
Ca2+ signal (% of Cmp 1a) [12]: 5.33 % of Cmp 1a (2×) and -13 % of Cmp 1a

Emax (Supplementary Table 4): 100 ± 2%
EC50 (Supplementary Table 4, read-out: pEC50, Ca2+ mobilization (converted)): 63.1 nM
EC50 [1]: 15.8 nM
Emax (Supplementary Table 7): 119 ± 6%
Ca2+ signal (% of Cmp 1a) (log [Compound] M -5.5, replicate experiments): 100 % of Cmp 1a
Ca2+ signal (% of Cmp 1a) (log [Compound] M -9.0, replicate experiments): 0 % of Cmp 1a
Ca2+ signal (% of Cmp 1a) [4]: 0 % of Cmp 1a
Ca2+ signal (% of Cmp 1a) (log [Compound] M = -5.5, individual replicate columns): 100 % of Cmp 1a
Ca2+ signal (% of Cmp 1a) (log [Compound] M = -9.0, individual replicate columns): 0 % of Cmp 1a
Compound: CC(NC(=O)CNC(=O)c1cccc(Cl)c1)c1ccccc1 (stereo not shown) [JNJ-63533054, reference compound]
Ca2+ signal (% of Cmp 1a) (log [Compound] M -6.0, replicate experiments): 91 % of Cmp 1a and 96 % of Cmp 1a and 95 % of Cmp 1a
Ca2+ signal (% of Cmp 1a) (log [Compound] M -6.5, replicate experiments): 91 % of Cmp 1a and 78 % of Cmp 1a and 84 % of Cmp 1a
Ca2+ signal (% of Cmp 1a) (log [Compound] M -7.0, replicate experiments): 68 % of Cmp 1a and 62 % of Cmp 1a and 69 % of Cmp 1a
Ca2+ signal (% of Cmp 1a) (log [Compound] M -7.5, replicate experiments): 36 % of Cmp 1a and 26 % of Cmp 1a and 32 % of Cmp 1a
Ca2+ signal (% of Cmp 1a) (log [Compound] M -8.0, replicate experiments): 25 % of Cmp 1a and 21 % of Cmp 1a and 8 % of Cmp 1a
Ca2+ signal (% of Cmp 1a) (log [Compound] M -8.5, individual replicates, listed as JNJ (S)): 33 % of Cmp 1a and 17 % of Cmp 1a and 31 % of Cmp 1a
Ca2+ signal (% of Cmp 1a) (log [Compound] M -8.5, replicate experiments): 11 % of Cmp 1a and 1.8 % of Cmp 1a and -4.36 % of Cmp 1a
Ca2+ signal (% of Cmp 1a) (log [Compound] M -9.0, individual replicates, listed as JNJ (S)): 12 % of Cmp 1a and 6 % of Cmp 1a and 21 % of Cmp 1a
Ca2+ signal (% of Cmp 1a) (log [Compound] M = -6.0, individual replicate columns): 96 % of Cmp 1a and 95 % of Cmp 1a and 91 % of Cmp 1a
Ca2+ signal (% of Cmp 1a) (log [Compound] M = -6.5, individual replicate columns): 78 % of Cmp 1a and 84 % of Cmp 1a and 91 % of Cmp 1a
Ca2+ signal (% of Cmp 1a) (log [Compound] M = -7.0, individual replicate columns): 62 % of Cmp 1a and 69 % of Cmp 1a and 68 % of Cmp 1a
Ca2+ signal (% of Cmp 1a) (log [Compound] M = -7.5, individual replicate columns): 26 % of Cmp 1a and 32 % of Cmp 1a and 36 % of Cmp 1a
Ca2+ signal (% of Cmp 1a) (log [Compound] M = -8.0, individual replicate columns): 21 % of Cmp 1a and 8 % of Cmp 1a and 25 % of Cmp 1a
Ca2+ signal (% of Cmp 1a) (log [Compound] M = -8.5, individual replicate columns): 1.8 % of Cmp 1a and -4.36 % of Cmp 1a and 11 % of Cmp 1a
Ca2+ signal (% of Cmp 1a) (log [compound] M -4.5, individual replicates, listed as JNJ (S)): 119 % of Cmp 1a and 120 % of Cmp 1a and 108 % of Cmp 1a
Ca2+ signal (% of Cmp 1a) (log [compound] M -5.0, individual replicates, listed as JNJ (S)): 106 % of Cmp 1a and 110 % of Cmp 1a and 122 % of Cmp 1a
Ca2+ signal (% of Cmp 1a) (log [compound] M -5.5, individual replicates, listed as JNJ (S)): 100 % of Cmp 1a and 103 % of Cmp 1a and 143 % of Cmp 1a
Ca2+ signal (% of Cmp 1a) (log [compound] M -6.0, individual replicates, listed as JNJ (S)): 91 % of Cmp 1a and 107 % of Cmp 1a and 141 % of Cmp 1a
Ca2+ signal (% of Cmp 1a) (log [compound] M -6.5, individual replicates, listed as JNJ (S)): 93 % of Cmp 1a and 118 % of Cmp 1a and 122 % of Cmp 1a
Ca2+ signal (% of Cmp 1a) (log [compound] M -7.0, individual replicates, listed as JNJ (S)): 76 % of Cmp 1a and 120 % of Cmp 1a and 95 % of Cmp 1a
Ca2+ signal (% of Cmp 1a) (log [compound] M -7.5, individual replicates, listed as JNJ (S)): 65 % of Cmp 1a and 92 % of Cmp 1a and 71 % of Cmp 1a
Ca2+ signal (% of Cmp 1a) (log [compound] M -8.0, individual replicates, listed as JNJ (S)): 46 % of Cmp 1a and 57 % of Cmp 1a and 54 % of Cmp 1a

Reference: publication PMC12775434, “Ultra-large virtual screening unveils potent agonists of the neuromodulatory orphan receptor GPR139” (Nature Communications, 2025)
